Patent US20100152129A1 (priority 2008, published 2010)
Several values for one entry are separate records, joined by “and”; a condition that tells them apart may be missing. Equal values may be shown once.

What was measured:
[1] = test system: Panc-1 cells; experiment: CCK-8 based cytotoxicity assay; type: cell-based
Text: CCK-8 based cytotoxicity assay is a sensitive nonradioactive colorimetric assay for determining the number of viable cells in cell proliferation and cytotoxicity assays. WST-8 (2-(2-methoxy-4-nitrophenyl)-3-(4-nitrophenyl)-5-(2,4-disulfophenyl)-2H tetrazolium, monosodium salt) is bioreduced by cellular dehydrogenases to an orange formazan product that is soluble in tissue culture medium. The amount of formazan produced is directly proportional to the number of living cells.
Test System: The Panc-1 cell line was procured from ATCC (American Tissue type Culture Collection USA, catalog number: CRL-1469) and the frozen vial was stored in liquid nitrogen container.
Panc-1 cells were seeded at a density of 3000 cells/well in a 96 well plate and allowed to recover for 24 hrs in a CO2 incubator at 37° C. […] The final DMSO concentration was 0.5% in wells. Plates were incubated for 24, 48, and 72 hrs. At the end of incubation CCK-8 was added and kept at 37° C. for 3 hrs following which absorbance was measured at 450 nm.

[2] = test system: xenograft models of colon cancer (HCT-116, SW-480) and non-small cell lung cancer (H-460); settings: oral administration; SCID mice; cited from earlier work
[3] = preclinical studies; cited from earlier work
[4] = test system: Panc-1 cells; experiment: Protein expression using high content cell imaging system, and efficacy score; type: cell-based; settings: for Efficacy score: cumulative over proteins of Table 7
Experimental: The data was generated using cell imaging system, where, cells after drug exposure were treated with protein specific antibody, followed by detection markers for the antibody. The images were generated and protein levels quantitated as an indication of drug effect.
Methodology: Panc-1 cells were seeded at a density of 5000 cells per well in 96 well plates and allowed recovery for 24 hrs in 5% CO2 incubator. After recovery, cells were challenged with Gemcitabine (IC30) for 24 hrs. After 24 hrs Gemcitabine was removed and fresh medium was added. […] The combination efficacy was identified against single treatments. At the end of the experiment Panc-1 cells were fixed and permeabilized. All the primary antibodies were added at a concentration according to manufacture protocol. After one hour incubation the cells were washed three times and labeled with secondary antibodies tagged with Dye Light 548 and nucleus was stained with Hoechest3342. After antibody labeling, cells were stained with the Cellomics whole Cell Stain Green to identify the cell's cytoplasmic area. Then all the plates were scanned in Cellomics ArrayScan® VTI HCS Reader. The results were analyzed using software that is designed for measuring the read from the imaging system.
Expression of proteins listed in Table 7 were determined in terms of fluorescence unit obtained by using target activation algorithm from High content imaging system from Cellomics. • Protein expression data expressed as fluorescent units from Table 7 were used to generate expression ratio by comparing drug treatments (individual or combination) against the normal control with no drug treatment. The ratio of expression which is considered as dys-regulation (1.5 fold above or below the range for up-regulation and down regulation respectively) is subtracted from the normal range (±1.5) and is used to measure the efficacy score.
Expression ratio=protein expression during drug treatment/protein expression under normal control.
Efficacy score =Cumulative score (expression ratio−±1.50) for all proteins.

[5] = 6 hours post treatment, control 3
[6] = 36 hours post treatment, control 98

In the case of `CN1CC[C@@H](c2c(O)cc(O)c3c(=O)cc(-c4ccc(C(F)(F)F)cc4Cl)oc23)[C@@H]1CO.Cl` (relative stereo) [P1446A], the “% Cytotoxicity” value ([1]; P1446A 30 nM, 24 hrs) is reported as 29.825%, the “% Cytotoxicity” value ([1]; P1446A 30 nM, 72 hrs) is reported as 23.33% and the “% Cytotoxicity” value ([1]; P1446A 100 nM, 24 hrs) is reported as 26.525%. The “% Cytotoxicity” value ([1]; P1446A 100 nM, 48 hrs) was 24.596%, the “% Cytotoxicity” value ([1]; P1446A 300 nM, 24 hrs) was 34.36% and the “% Cytotoxicity” value ([1]; P1446A 300 nM, 48 hrs) was 28.636%. The “% Cytotoxicity” value ([1]; P1446A 300 nM, 72 hrs, hydrochloride) was 31.05% and 31.075%, the tumor growth inhibition [2] was “significant tumor growth inhibition” and the oral bioavailability [3] was “good oral bioavailability”. For the same compound, the PTN protein expression ([4]; 6 hours post treatment, control 1) was 3 fluorescence units, the GADD45-α protein expression [4, 5] was 3 fluorescence units and the ID1 protein expression [4, 5] was 38 fluorescence units. The P27 protein expression ([4]; 6 hours post treatment, control 6) was 4 fluorescence units, the CDC25B protein expression ([4]; 6 hours post treatment, control 7) was 4 fluorescence units and the CDKN2A protein expression ([4]; 6 hours post treatment, control 8) was 49 fluorescence units. It also gave a CCND1 protein expression ([4]; 6 hours post treatment, control 74) of 87 fluorescence units, a GAPDH protein expression ([4]; 6 hours post treatment, control 80) of 78 fluorescence units and a CASP3 protein expression ([4]; 6 hours post treatment, control 147) of 102 fluorescence units. The MMP-1 protein expression ([4]; 6 hours post treatment, control 501) was 235 fluorescence units, the COX15 protein expression ([4]; 6 hours post treatment, control 627) was 628 fluorescence units and the COX2 protein expression ([4]; 6 hours post treatment, control 635) was 457 fluorescence units. The BAX protein expression ([4]; 6 hours post treatment, control 819) was 421 fluorescence units, the VEGF protein expression ([4]; 6 hours post treatment, control 829) was 235 fluorescence units and the BCL2 protein expression ([4]; 6 hours post treatment, control 830) was 587 fluorescence units. It also gave a pRB protein expression ([4]; 6 hours post treatment, control 1240) of 1489 fluorescence units, an Efficacy score ([4]; 6 hours) of 2.1 and a GADD45-α protein expression ([4]; 16 hours post treatment, control 13) of 46 fluorescence units. For the same compound, the CDC25B protein expression ([4]; 16 hours post treatment, control 54) was 45 fluorescence units, the CDKN2A protein expression ([4]; 16 hours post treatment, control 64) was 55 fluorescence units and the P27 protein expression ([4]; 16 hours post treatment, control 67) was 37 fluorescence units. It also gave a PTN protein expression ([4]; 16 hours post treatment, control 76) of 34 fluorescence units, an ID1 protein expression ([4]; 16 hours post treatment, control 77) of 67 fluorescence units and a CCND1 protein expression ([4]; 16 hours post treatment, control 90) of 85 fluorescence units. For the same compound, the GAPDH protein expression ([4]; 16 hours post treatment, control 100) was 100 fluorescence units, the CASP3 protein expression ([4]; 16 hours post treatment, control 202) was 1157 fluorescence units and the VEGF protein expression ([4]; 16 hours post treatment, control 579) was 420 fluorescence units. For the same compound, the BCL2 protein expression ([4]; 16 hours post treatment, control 644) was 546 fluorescence units, the BAX protein expression ([4]; 16 hours post treatment, control 711) was 688 fluorescence units and the COX15 protein expression ([4]; 16 hours post treatment, control 718) was 896 fluorescence units. The MMP-1 protein expression ([4]; 16 hours post treatment, control 929) was 420 fluorescence units, the COX2 protein expression ([4]; 16 hours post treatment, control 1109) was 1063 fluorescence units and the pRB protein expression ([4]; 16 hours post treatment, control 2583) was 1721 fluorescence units. The Efficacy score ([4]; 16 hours) was 10.3, the GADD45-α protein expression ([4]; 36 hours post treatment, control 19) was 43 fluorescence units and the COX2 protein expression ([4]; 36 hours post treatment, control 86) was 43 fluorescence units. For the same compound, the P27 protein expression ([4]; 36 hours post treatment, control 96) was 65 fluorescence units, the CCND1 protein expression [4, 6] was 55 fluorescence units and the CDC25B protein expression [4, 6] was 70 fluorescence units. The GAPDH protein expression [4, 6] was 63 fluorescence units, the ID1 protein expression [4, 6] was 83 fluorescence units and the PTN protein expression ([4]; 36 hours post treatment, control 100) was 99 fluorescence units. It also gave a CASP3 protein expression ([4]; 36 hours post treatment, control 265) of 1220 fluorescence units, a BAX protein expression ([4]; 36 hours post treatment, control 715) of 1670 fluorescence units and a COX15 protein expression ([4]; 36 hours post treatment, control 722) of 1878 fluorescence units. The VEGF protein expression ([4]; 36 hours post treatment, control 1093) was 1195 fluorescence units, the MMP-1 protein expression ([4]; 36 hours post treatment, control 1316) was 1195 fluorescence units and the BCL2 protein expression ([4]; 36 hours post treatment, control 1410) was 1330 fluorescence units. For the same compound, the CDKN2A protein expression ([4]; 36 hours post treatment, control 1441) was 1395 fluorescence units, the pRB protein expression ([4]; 36 hours post treatment, control 2840) was 1978 fluorescence units and the Efficacy score ([4]; 36 hours) was 7.6.
